Measurements as given in the supplement of paper PMC11997997.

Assays:
[1] = tested on: murine bone marrow-derived macrophages; assay: area under cytotoxicity dose-response curve (AUC (% cytotoxicity x dose, relative)); higher = more cytotoxic; details: duration: 6 days; dose range: 0.13-80 uM, 8 points
Outline: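 Cytotoxicity is expressed as the area under the dose–response curve from GraphPad Prism version 10. To obtain it, primary murine bone marrow-derived macrophages were incubated for 6 days at 37 °C in 5% CO2 across final concentrations of 80–0.13 μM. Viability came from CellTiter-Glo luminescence, and percent cytotoxicity was normalised to vehicle and positive control wells.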

[2] = tested on: Mycobacterium tuberculosis CDC1551 (intracellular, in murine BMDM); assay: area under intracellular growth-inhibition dose-response curve (AUC (% inhibition x dose, relative)); higher = more potent; details: duration: 6 days; dose range: 0.13-80 uM, 8 points
Outline: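 In 384-well opaque plates, primary murine bone marrow-derived macrophages were infected with luciferase-expressing M. tuberculosis CDC1551 (multiplicity of infection 1, 1 h) 24 h after seeding, then treated for 6 days across final concentrations of 80–0.13 μM. Growth was measured by Bright-Glo luciferin assay, normalised to a reference drug control and the lowest-concentration wells. The reported value is the area under the growth-inhibition dose–response curve from GraphPad Prism.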

SMILES | area under cytotoxicity dose-response curve [1] | area under intracellular growth-inhibition dose-response curve [2]
C=C1C(=O)O[C@@H]2C[C@@H](C)[C@@H]3C=CC(=O)[C@@]3(C)[C@@H](OC(=O)CC(=O)O[C@H]3[C@@H]4C(=C)C(=O)O[C@@H]4C[C@@H](C)[C@@H]4C=CC(=O)[C@]43C)[C@H]12 | 35 | 87.6
O=C(N/N=C/c1ccc(Sc2nc3ccccc3[nH]2)o1)c1ccncc1 | 34.4 | 269
CCOC(=O)c1c(-c2ccccc2)nc2cc(C)ccn12 | 1.58 | 147
Cc1nnc(SCC2=C(C(=O)O)N3C(=O)C(NC(=O)Cn4nc(C)c(Cl)c4C)C3SC2)s1 (stereo not given) | 82.6 | 112
COCCCNCC(=O)Nc1sc(C)c(C)c1C(=O)OC.O=C(O)C(=O)O | 48.9 | 76.8
O=P1(c2ccccc2)Nc2ccccc2N1c1ccccc1 (stereo not given) | 8.15 | 264
COC(=O)C(C)NC(=S)N1CCN(c2c(F)cc3c(=O)c(C(=O)O)cn(C4CC4)c3c2OC)CC1C (stereo not given) | 23.4 | 90
O=C(COc1ccc(/C=N/NC(=O)c2ccncc2)cc1)Nc1ccccc1 | 34.4 | 266
Cc1ccc(NC(=O)NC2CCCCCCC2)cc1C | 89 | 230
CCCCn1c(N)c(N(CCOC)C(=O)c2oc3ccc(Br)cc3c2C)c(=O)[nH]c1=O | 7.25 | 207
CC1CCN(C(=O)c2ccc(CNc3c(N4CCCC4)c(=O)c3=O)cc2)CC1 | 78.3 | 166
CCCN(Cc1nnc(-c2ccccc2Cl)o1)C(=O)c1cc([N+](=O)[O-])cc([N+](=O)[O-])c1 | 38.7 | 84
O=C(Cc1ccc(Br)cc1)N1CCCC1 | < 0 | 208
CC(C)c1ccc(CNc2nc3nc4c(c(O)n3n2)CCC4)cc1 | < 0 | 163
CC(C)(C)c1nnc(NC(=S)Nc2ccccc2)s1 | < 0 | 258
CC(C)C(=O)N1CCN(c2ccc(NC(=O)c3ccc([N+](=O)[O-])o3)cc2Cl)CC1 | 79.8 | 109
O=Cc1c(Nc2cccc(C(F)(F)F)c2)nc2ccccn2c1=O | < 0 | 234
Cc1ccc(C(=O)NCc2ccc(Cl)cc2)o1 | 15.1 | 263
CCCNC(=O)OCC12CC3CC(CC(C3)C1)C2 | 228 | 237
CC1CCC(C(C)C)C(OC(=O)C[n+]2c(-c3ccccc3)n(C)c3ccccc32)C1.[Cl-] (stereo not given) | 56.7 | 202
O=C1N(c2nncs2)CCN1[N+](=O)[O-] | < 0 | 97.8
Cc1nnc(N2CCCCC2)c2ccccc12 | 15.8 | 117
O=S(=O)(Nc1ccc(S(=O)(=O)Nc2nccs2)cc1)c1ccc2c(c1)OCCO2 | < 0 | 77.8
CC[N+](CC)(CC)CCCCOc1ccc2c(c1)C(=O)c1cc(OCCCC[N+](CC)(CC)CC)ccc1-2.[I-] | 56.8 | 92.4
O=C(Nc1ccc(N2CCN(Cc3ccccc3F)CC2)cc1)c1ccc([N+](=O)[O-])o1 | 5.12 | 186
